Assay results: US9593139B2, “Compositions, methods, and kits comprising platinum compounds associated with a ligand comprising a targeting moiety” (priority 2013, dated 2017)

Assays:
[1] = system: A2780 cells; assay: MTT cytotoxicity assay, cisplatin-sensitive ovarian cancer cell line; type: cell-based; settings: 72 h incubation
Description: (§1) A2780 and A2780CP70 (ovarian cisplatin-sensitive and -resistant) cell lines were obtained from Fox Chase Cancer Center and cultured in RPMI-1640 medium supplemented with 10% fetal bovine serum (FBS) and 1% penicillin/streptomycin.
(§2) The colorimetric MTT assay was used to assess cytotoxicity. In a 96-well plate, 2000 cells per well were seeded in 100 μL growth medium and allowed to attach overnight. The growth media was then aspirated and replaced with 100 μL of growth medium containing varying concentrations of the platinum complexes. Six wells were used per concentration level. After 72 h, the platinum-containing media was aspirated and replaced with 200 μL of RPMI-1640 containing 0.67 mg/mL MTT. The cells were further incubated for 4 h. The MTT solution was removed, and the resulting purple formazan crystals were dissolved in 100 μL of 25:1 mixture of DMSO and aqueous ammonia. The absorbance was measured at 550 nm. The absorbance values were normalized to the Pt-free wells (100% cell viability) and are plotted versus platinum concentration. […] These experiments were repeated at least three times, and the reported IC50 values are the averages of these trials with the error estimated from the resulting standard deviations.

[2] = system: A2780CP70 cells; assay: MTT cytotoxicity assay, cisplatin-resistant ovarian cancer cell line; type: cell-based; settings: for IC50: A2780CP70 (cisplatin-resistant), MTT, 72 h incubation; for R.F. (resistance factor, IC50(resistant)/IC50(sensitive)): A2780CP70 vs A2780, 72 h incubation
Description: as §1, §2

[Pt(succac)(NH3)2]-r(Fxr)3-CONH2 [Pt-MPP]
IC50 [1]: 7.5 ± 0.3 µM | IC50 [2]: 5 ± 1.4 µM | R.F. (resistance factor, IC50(resistant)/IC50(sensitive)) [2]: 0.7±0.2

O=C1[O][Pt-2]2([NH2+]C3CCCC[C@H]3[NH2+]2)[O]C1=O (stereo partly drawn) [Oxaliplatin, (R,R-1,2-diaminocyclohexane)oxalatoplatinum(II)]
IC50 [1]: 0.25 µM | IC50 [2]: 1 µM | R.F. (resistance factor, IC50(resistant)/IC50(sensitive)) [2]: 4.1 ± 0.4

N.N.[Cl][Pt][Cl] [cisplatin, cis-diamminedichloroplatinum(II)]
IC50 [1]: 0.6 ± 0.08 µM | IC50 [2]: 5.2 ± 1.4 µM | R.F. (resistance factor, IC50(resistant)/IC50(sensitive)) [2]: 8.7 ± 2.6

[Pt(acac)(NH3)2](SO4)0.5
IC50 [1]: 13.9 ± 1.9 µM | IC50 [2]: 122 ± 10 µM | R.F. (resistance factor, IC50(resistant)/IC50(sensitive)) [2]: 8.8 ± 1.4
